pIC50: −log10 of the molar value.
Columns and labels:
human TRPA1 = human TRPA1 (Homo sapiens (Human), UniProt O75762); assay: Inhibition of human TRPA1 in whole cell patch configuration (10 μM AITC activation); format: cell-based; details: current activation 10 μM AITC, tested concentrations 320 pM to 3.2 μM, read-out: hTRPA1 IC50
Procedure: Data for TRPA1 inhibition was obtained by this method for the indicated compounds of Formula (I), (II), or (III), with the relevant data included in Table 2 below. All currents were recorded in whole-cell configuration using EPC-9 and EPC-10 amplifiers and Patchmaster software (HEKA) or similar. […] The standard pipette solution consisted of 140 mM CsAsp, 10 mM EGTA, 10 mM HEPES, […], 1.91 mM CaCl2, and up to 0.3 mM Na2GTP, with pH adjusted to 7.2 with CsOH. In addition, a solution containing 145 mM CsCl, 10 mM HEPES, 10 mM EGTA, and up to 0.3 mM Na2GTP and 1 mM MgCl2 (pH 7.2 adjusted with CsOH) can be used. The standard bath solution contained 150 mM NaCl, 10 mM HEPES, 10 mM glucose, 4.5 mM KCl, 1 mM EGTA, 3 mM MgCl2, with pH adjusted to 7.4 with NaOH. In some instances, 2 mM CaCl2 was added in place of EGTA and the concentration of MgCl2 was reduced to 1 mM.
Data were collected either by continuous recordings at −60 mV or by applying voltage ramps from a holding potential of −40 mV every 4 s. Continuous recordings were collected at 400 Hz and digitally filtered off-line at 10 Hz for presentation. Voltage ramps were applied from −100 mV or −80 mV to +100 mV or +80 mV over the course of 400 ms, and data were collected at 10 kHz and filtered at 2.9 kHz. Inward and outward currents were analyzed from the ramps at −80 and 80 mV, respectively. Liquid junction potential correction was not used.
Solutions were switched using a gravity-fed continuous focal perfusion system. To achieve rapid temperature changes, two temperature control, and perfusion systems were employed simultaneously. For temperatures greater than or equal to 22° C., a Warner Instruments bipolar temperature controller (TC-344B) and inline heater (SHM-8) were used. For temperatures below 22° C. a Warner Instruments temperature controller (CL-100) and thermal cooling module (TCM-1) were used. Temperatures were confirmed using a thermistor (Warner Instruments, TA-29), with temperatures at the recorded cell estimated to be within +/−2° C. of those reported.
The antagonist effects of compounds of Formula (I), (II), or (III) against human TRPA1 (“hTRPA1”) in a whole cell patch configuration were evaluated using the in vitro assay described above. The current activation tested was 10 μM AITC, and the tested concentrations ranged from 320 pM to 3.2 μM.

[1] = Solubility in Normal Ringer Solution; format: physicochemical; details: saline or isotonic, kinetic from dmso stock, pH 7.4 at room temperature, 40 minutes incubation, from 10 mM DMSO stock
Procedure: Compounds of the invention were also tested for solubility in Normal Ringer Solution. Briefly, compound solubility was determined by dissolving a standard range of volumes of 10 mM DMSO stock of compounds in Normal Ringer Solution (pH 7.4 at room temperature). Following vortex and incubation for 40 minutes at room temperature, solutions were filtered, quenched with acetonitrile, and analyzed by Liquid Chromatography. Solubility limits were determined by comparison to a standard curve. […] Solubility is reported as “greater than” if the observed increase between the last 2 dilutions tested is greater than 2-fold.

Chain of human TRPA1 (O75762 whole entry): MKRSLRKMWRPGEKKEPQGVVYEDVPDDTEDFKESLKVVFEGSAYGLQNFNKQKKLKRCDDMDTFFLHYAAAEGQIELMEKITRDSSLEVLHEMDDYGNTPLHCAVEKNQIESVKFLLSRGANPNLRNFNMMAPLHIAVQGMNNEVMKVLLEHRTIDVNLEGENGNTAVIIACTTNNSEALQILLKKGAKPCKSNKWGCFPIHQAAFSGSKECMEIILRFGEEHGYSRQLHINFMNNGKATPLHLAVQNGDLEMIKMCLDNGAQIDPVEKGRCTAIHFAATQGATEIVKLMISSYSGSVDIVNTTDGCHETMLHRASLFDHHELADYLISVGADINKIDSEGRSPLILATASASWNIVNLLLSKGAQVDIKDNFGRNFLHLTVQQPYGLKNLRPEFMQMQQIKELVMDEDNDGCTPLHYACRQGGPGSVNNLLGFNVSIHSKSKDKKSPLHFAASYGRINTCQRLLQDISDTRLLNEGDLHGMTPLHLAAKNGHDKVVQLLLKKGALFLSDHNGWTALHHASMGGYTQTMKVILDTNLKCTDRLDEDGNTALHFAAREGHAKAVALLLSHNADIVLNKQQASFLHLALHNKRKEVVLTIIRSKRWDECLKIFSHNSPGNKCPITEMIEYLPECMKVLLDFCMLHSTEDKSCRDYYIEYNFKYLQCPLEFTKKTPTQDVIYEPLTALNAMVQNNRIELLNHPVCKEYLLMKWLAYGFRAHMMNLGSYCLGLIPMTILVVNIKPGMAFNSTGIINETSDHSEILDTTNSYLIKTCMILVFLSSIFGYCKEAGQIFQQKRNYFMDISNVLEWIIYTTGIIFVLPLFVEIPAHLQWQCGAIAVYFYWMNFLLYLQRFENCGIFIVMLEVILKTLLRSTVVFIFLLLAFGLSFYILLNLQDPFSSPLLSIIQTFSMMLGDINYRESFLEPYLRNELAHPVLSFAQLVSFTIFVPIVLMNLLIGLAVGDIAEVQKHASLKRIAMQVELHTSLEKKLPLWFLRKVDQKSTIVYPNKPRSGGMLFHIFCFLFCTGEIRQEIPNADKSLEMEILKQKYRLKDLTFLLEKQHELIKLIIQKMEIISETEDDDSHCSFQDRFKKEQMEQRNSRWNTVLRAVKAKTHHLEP

Compound	pIC50 (human TRPA1)	solubility at 40 min [1] [µM]
Cc1noc(Cn2c(=O)[nH]c3ncn(C(C)C(=O)Nc4cncc(-c5cnc(C(F)(F)F)nc5)n4)c3c2=O)n1 (centres unmarked) [Compound 100]	< 5.00	> 31.3
C[C@@H](C(=O)Nc1cncc(-c2cnc(C(F)(F)F)nc2)n1)n1cnc2c1c(=O)n(CC(N)=O)c(=O)n2C [Compound 104]	5.15	> 31.3
C[C@@H](C(=O)Nc1cccc(-c2cnc(C(F)(F)F)nc2)n1)n1cnc2c1c(=O)n(CC(N)=O)c(=O)n2C [Compound 105]	6.25	> 31.3
[2H]C([2H])([2H])n1c(=O)n(Cc2nc(C)no2)c(=O)c2c1ncn2C(C)C(=O)Nc1cncc(-c2cnc(C(F)(F)F)nc2)n1 (centres unmarked) [Compound 106]		> 31.3
[2H]C([2H])([2H])n1c(=O)n(Cc2nc(C)no2)c(=O)c2c1ncn2C(C)C(=O)Nc1cccc(-c2cnc(C(F)(F)F)nc2)n1 (centres unmarked) [Compound 107]		> 31.3

Further compounds by rising pIC50 (human TRPA1), results first:

pIC50 (human TRPA1)	solubility at 40 min [1] [µM]	Compound
6.25	> 31.3	Cc1noc(Cn2c(=O)[nH]c3ncn(C(C)C(=O)Nc4cccc(-c5cnc(C(F)(F)F)nc5)n4)c3c2=O)n1 (centres unmarked) [Compound 101]
6.76	> 31.3	CC(=O)NC(=O)Cn1c(=O)c2c(ncn2[C@@H](C)C(=O)Nc2cncc(-c3cnc(C(F)(F)F)nc3)n2)n(C)c1=O [Compound 102]
7.32	> 31.3	CC(=O)NC(=O)Cn1c(=O)c2c(ncn2[C@@H](C)C(=O)Nc2cccc(-c3cnc(C(F)(F)F)nc3)n2)n(C)c1=O [Compound 103]

Reference: US11161849B2, “Inhibiting the transient receptor potential al ion channel” (Eli Lilly and Company, priority 2018, dated 2021)
